Structures can show the parent of a compound that is named as a salt.

For orientation: melting point means the temperature of the solid-liquid transition. Turning to `O=C(CN1c2nc(-c3ccncc3)cc(=O)n2CCC12CC2)c1ccccc1` (as salt: hydrochloride) [compound 2, 1′-(2-Oxo-2-phenylethyl)-8′-pyridin-4-yl-3′,4′-dihydrospiro[cyclopropane-1,2′-pyrimido[1,2-a]pyrimidin]-6′(1′H)-one], the melting point lay in the range of 232 to 234 °C.

For `O=c1cc(-c2ccncc2)nc2n1CCC1(CCCC1)N2C[C@@H](O)c1ccccc1` (as salt: hydrochloride) [compound 3, 1′-[(2S)-2-Hydroxy-2-phenylethyl]-8′-pyridin-4-yl-3′,4′-dihydrospiro-[cyclopentane-1,2′-pyrimido[1,2-a]pyrimidin]-6′(1′H)-one], the melting point was 221 to 223 °C.

Compound `O=C(CN1c2nc(-c3ccncc3)cc(=O)n2CCC12CCCC2)c1ccccc1` (as salt: hydrochloride) [compound 7, 1′-(2-Oxo-2-phenylethyl)-8′-pyridin-4-yl-3′,4′-dihydrospiro[cyclopentane-1,2′-pyrimido[1,2-a]pyrimidin]-6′(1′H)-one] showed a melting point of 161 to 162 °C.

Take `O=c1cc(-c2ccncc2)nc2n1CCC1(CCC1)N2C[C@@H](O)c1ccccc1` (as salt: hydrochloride) [compound 8, 1′-[(2S)-2-Hydroxy-2-phenylethyl]-8′-pyridin-4-yl-3′,4′-dihydrospiro-[cyclobutane-1,2′-pyrimido[1,2-a]pyrimidin]-6′(1′H)-one]: the melting point was 214 to 216 °C.

As for `O=C(CN1c2nc(-c3ccncc3)cc(=O)n2CCC12CCC2)c1ccccc1` (as salt: hydrochloride) [compound 9, 1′-(2-Oxo-2-phenylethyl)-8′-pyridin-4-yl-3′,4′-dihydrospiro[cyclobutane-1,2′-pyrimido[1,2-a]pyrimidin]-6′(1′H)-one], the melting point is 242 to 244 °C.

Turning to `O=c1cc(-c2ccncc2)nc2n1CCC1(CCC1)N2C[C@H](O)c1ccccc1` (as salt: hydrochloride) [compound 13, 1′-[(2R)-2-Hydroxy-2-phenylethyl]-8′-pyridin-4-yl-3′,4′-dihydrospiro-[cyclobutane-1,2′-pyrimido[1,2-a]pyrimidin]-6′(1′H)-one], the melting point is 218 to 220 °C.

The compound `O=c1cc(-c2ccncc2)nc2n1CCC1(CCCC1)N2C[C@H](O)c1ccccc1` (as salt: hydrochloride) [compound 15, 1′-[(2R)-2-Hydroxy-2-phenylethyl]-8′-pyridin-4-yl-3′,4′-dihydrospiro-[cyclopentane-1,2′-pyrimido[1,2-a]pyrimidin]-6′(1′H)-one] showed a melting point of 221 to 222 °C.

For the compound `O=c1cc(-c2ccncc2)nc2n1CCC1(CC1)N2Cc1ccccc1` (as salt: hydrochloride) [compound 17, 1′-(phenylmethyl)-8′-pyridin-4-yl-3′,4′-dihydrospiro-[cyclopropane-1,2′-pyrimido[1,2-a]pyrimidin]-6′(1′H)-one], the melting point lay within 233 to 235 °C.

In the case of `O=c1cc(-c2ccncc2)nc2n1CCC1(CCC1)N2Cc1ccccc1` (as salt: hydrochloride) [compound 18, 1′-(phenylmethyl)-8′-pyridin-4-yl-3′,4′-dihydrospiro-[cyclobutane-1,2′-pyrimido[1,2-a]pyrimidin]-6′(1′H)-one], the melting point fell in the range of 213 to 215 °C.

`O=c1cc(-c2ccncc2)nc2n1CCC1(CCCC1)N2Cc1ccccc1` (as salt: hydrochloride) [compound 19, 1′-(phenylmethyl)-8′-pyridin-4-yl-3′,4′-dihydrospiro-[cyclopentane-1,2′-pyrimido[1,2-a]pyrimidin]-6′(1′H)-one] registered a melting point of 227 to 228 °C.

The compound `O=c1cc(-c2ccncc2)nc2n1CCC1(CCCC1)N2CCc1ccccc1` (as salt: hydrochloride) [compound 20, 1′-(phenylethyl)-8′-pyridin-4-yl-3′,4′-dihydrospiro-[cyclopentane-1,2′-pyrimido[1,2-a]pyrimidin]-6′(1′H)-one] returned a melting point of 208 to 210 °C.

In the case of `O=c1cc(-c2ccncc2)nc2n1CCC1(CCC1)N2CCc1ccccc1` (as salt: hydrochloride) [compound 21, 1′-(phenylethyl)-8′-pyridin-4-yl-3′,4′-dihydrospiro-[cyclobutane-1,2′-pyrimido[1,2-a]pyrimidin]-6′(1′H)-one], the melting point lay in the range of 210 to 211 °C.

`O=c1cc(-c2ccncc2)nc2n1CCC1(CC1)N2CCc1ccccc1` (as salt: hydrochloride) [compound 22, 1′-(phenylethyl)-8′-pyridin-4-yl-3′,4′-dihydrospiro-[cyclopropane-1,2′-pyrimido[1,2-a]pyrimidin]-6′(1′H)-one]: the melting point lay within 224 to 225 °C.

`O=c1cc(-c2ccncc2)nc2n1CCC1(CC1)N2C[C@@H](O)c1ccccc1` (as salt: hydrochloride) [compound No. 1, 1′-[(2S)-2-Hydroxy-2-phenylethyl]-8′-pyridin-4-yl-3′,4′-dihydrospiro[cyclopropane-1,2′-pyrimido[1,2-a]pyrimidin]-6′(1′H)-one] registered a melting point of 219 to 221 °C.

`O=c1cc(-c2ccncn2)nc2n1CCC1(CCCC1)N2C[C@@H](O)c1ccccc1` [compound 4, 1′-[(2S)-2-Hydroxy-2-phenylethyl]-8′-pyrimidin-4-yl-3′,4′-dihydrospiro-[cyclopentane-1,2′-pyrimido[1,2-a]pyrimidin]-6′(1′H)-one] came in with a melting point of 157 to 158 °C.

Regarding `O=c1cc(-c2ccncn2)nc2n1CCC1(CCCC1)N2C[C@H](O)c1ccccc1` [compound 5, 1′-[(2R)-2-Hydroxy-2-phenylethyl]-8′-pyrimidin-4-yl-3′,4′-dihydrospiro-[cyclopentane-1,2′-pyrimido[1,2-a]pyrimidin]-6′(1′H)-one], the melting point lay in the range of 155 to 156 °C.

Compound `O=C(CN1c2nc(-c3ccncn3)cc(=O)n2CCC12CCCC2)c1ccccc1` [compound 6, 1′-[2-Oxo-2-phenylethyl]-8′-pyrimidin-4-yl-3′,4′-dihydrospiro-[cyclopentane-1,2′-pyrimido[1,2-a]pyrimidin]-6′(1′H)-one] gave a melting point of 194 to 196 °C.

`O=c1cc(-c2ccncn2)nc2n1CCC1(CCC1)N2C[C@@H](O)c1ccccc1` [compound 11, 1′-[(2S)-2-Hydroxy-2-phenylethyl]-8′-pyrimidin-4-yl-3′,4′-dihydrospiro-[cyclobutane-1,2′-pyrimido[1,2-a]pyrimidin]-6′(1′H)-one] displayed a melting point of 186 to 187 °C.

`O=c1cc(-c2ccncn2)nc2n1CCC1(CCC1)N2C[C@H](O)c1ccccc1` [compound 12, 1′-[(2R)-2-Hydroxy-2-phenylethyl]-8′-pyrimidin-4-yl-3′,4′-dihydrospiro-[cyclobutane-1,2′-pyrimido[1,2-a]pyrimidin]-6′(1′H)-one] yielded a melting point of 182 to 184 °C.

As for `O=c1cc(-c2ccncn2)nc2n1CCC1(CCC1)N2Cc1ccccc1` [compound 14, 1′-(phenylmethyl)-8′-pyrimidin-4-yl-3′,4′-dihydrospiro-[cyclobutane-1,2′-pyrimido[1,2-a]pyrimidin]-6′(1′H)-one], the melting point is 149 to 150 °C.

Take `O=c1cc(-c2ccncn2)nc2n1CCC1(CCCC1)N2Cc1ccccc1` [compound 16, 1′-(phenylmethyl)-8′-pyrimidin-4-yl-3′,4′-dihydrospiro-[cyclopentane-1,2′-pyrimido[1,2-a]pyrimidin]-6′(1′H)-one]: the melting point was 191 to 193 °C.

The compound `O=c1cc(-c2ccncn2)nc2n1CCC1(CCC1)N2CCc1ccccc1` [compound 23, 1′-(phenylethyl)-8′-pyrimidin-4-yl-3′,4′-dihydrospiro-[cyclobutane-1,2′-pyrimido[1,2-a]pyrimidin]-6′(1′H)-one] showed a melting point of 116 to 167 °C.

`O=c1cc(-c2ccncn2)nc2n1CCC1(CCCC1)N2CCc1ccccc1` [compound 24, 1′-(phenylethyl)-8′-pyrimidin-4-yl-3′,4′-dihydrospiro-[cyclopentane-1,2′-pyrimido[1,2-a]pyrimidin]-6′(1′H)-one] registered a melting point of 190 to 191 °C.

As to `O=C(CN1c2nc(-c3ccncn3)cc(=O)n2CCC12CCC2)c1ccccc1` [compound No. 10, 1′-(2-Oxo-2-phenylethyl)-8′-pyrimidin-4-yl-3′,4′-dihydrospiro[cyclobutane-1,2′-pyrimido[1,2-a]pyrimidine]-6′(1′H)-one], the melting point was in the range of 207 to 208 °C.

The values are drawn from patent US7507743B2, “Substituted 8′-pyridinyl-dihydrospiro-[cycloalkyl]-pyrimido[1,2-a] pyrimidin-6-one and 8′-pyrimidinyl-dihydrospiro-[cycloalkyl]-pyrimido[1,2-a] pyrimidin-6-one derivatives” (Sanofi-Aventis, priority 2003, dated 2009).
